Key:
cyclin D1 = experiment: Western blot of IGF-1 induced cyclin D1 expression in MCF-7 cells; assay type: cell-based, human; settings: 10 μM auraptene, 2 h pretreatment, 8 h after IGF-1, MCF-7 cells
Description: To study the effect of auraptene on the expression on cyclin D1, MCF-7 cells were plated in eight 12-well plates at 1.5 × 10^4 cells/well. The cells were incubated at 37°C till the next day in media with serum. The cells were serum starved for synchronization in serum free media for the next 24 h. At 22 h of serum starvation, the cells except in DMSO only and IGF-1 only groups, were treated with 10 μM auraptene in DMSO. At 24 h of serum starvation, the cells except in DMSO group were treated with 10 ng/mL of IGF-1. The cells were harvested at 5,15 and 30 minutes and at 1 h, 2 h, 4 h, 8 h and 24 h after IGF-1 treatment by directly adding boiling Laemmeli buffer. The cyclin D1 expression was then analyzed by western blot. In short, equal volumes (15 μL) of the sample in Laemmeli buffer was loaded into each well and resolved. The separated proteins were then electroblotted on a 0.45 μm pore size PVDF membrane (Immobilon-P, Millipore, Billerica, MA). After the protein transfer the membrane was placed in Millipore SNAP id Protein Detection System. […] The band intensity was evaluated using the Image-J software. […]
Figure 2 Effects of auraptene on human breast carcinoma cells. […] Cell proliferation was assessed using the MTT reagent. […] Cell proliferation was assessed using the MTS reagent. […]

[1] = Tissue extraction and HPLC-fluorescence analysis of auraptene in rat tissues; assay type: in vivo, female Sprague-Dawley rats; settings: for average concentration in normal mammary glands: means ± S.E.
Description: The concentration of auraptene was measured in mammary glands, livers and tumors of rats. The specimens from the animals were weighed and minced on a glass plate kept on ice. The minced sample was added to 0.05 M Tris buffer, pH 7.4, containing 0.25 M sucrose in 1 ml. To 1 ml of this homogenized sample, 80 μL of 100 μM curcumin was added as internal standard followed by vortexing. The sample was then extracted twice with ethyl acetate: acetone (2:1 v/v). The combined supernatant was then dried under N2 gas, resuspended in 1 mL 70% methanol/H2O and analyzed by HPLC (Shimadzu, SIL-10AF) with UV (254 nm) and fluorescence detection (Shimadzu, RF-535) at excitation and emission wavelengths of 329 nm and 390 nm respectively. The flow rate in HPLC was 1 ml/min with C18*5μ column. The mobile phase started with 80% methanol in water up to 20 minutes and was increased in a linear gradient up to 100% methanol over the next 5 minutes. Under these conditions, auraptene eluted at 14 minutes and curcumin at 6 minutes. The ratio of area under the curve for auraptene at different concentrations to that of curcumin was plotted to make the standard curve. The concentration of auraptene in the specimens was calculated from the standard curve. For the calculation of concentration, 1 gm of the tissue was assumed to occupy a volume of 1 ml.
Figure 6 Concentrations of auraptene in rat tissues from the tumor study. The rat mammary glands, tumors and livers were weighed and homogenized. To the homogenate 80 μL of 100 μM curcumin was added as internal standard and extracted twice with ethyl acetate: acetone mixture (2:1 v/v). The extract was dried and resuspended in 1 mL 70% methanol/H2O and analyzed by HPLC (Shimadzu, SIL-10AF) with UV (254 nm) and fluorescence detection (Shimadzu, RF-535) at excitation and emission wavelengths of 329 nm and 390 nm respectively.

Question: What does the source list for `CC(C)=CCC/C(C)=C/COc1ccc2ccc(=O)oc2c1` [auraptene]?
Answer: IGF-1 induced cyclin D1 expression (cyclin D1): nearly a total loss of IGF-1 induced cyclin D1 expression; average concentration in normal mammary glands ([1]; 200 ppm in diet): 1.4 ± 0.5 µM; average concentration in livers ([1]; 500 ppm in diet, mean, n = 2): 0.87 µM; average concentration in normal mammary glands ([1]; 500 ppm in diet): 1.8 ± 0.3 µM

From paper PMC2724550, “Citrus auraptene suppresses cyclin D1 and significantly delays N-methyl nitrosourea induced mammary carcinogenesis in female Sprague-Dawley rats” (BMC Cancer, 2009)
